Assay results published in patent publication US4835258A, “Conjugation of aromatic amines or nitro-containing compounds with proteins or polypeptides by photoirradiation of the azide derivatives with ultraviolet light in order to produce antibodies against the haptens” (Northwestsern University, priority 1986, dated 1989).

Experiments:
[1] = Solubility in aqueous buffer; format: physicochemical; conditions: insoluble above this concentration, read-out: solubility limit in aqueous buffer
anti-ANEC-BSA serum = assay: Inhibition ELISA, anti-ANEC-BSA serum on ANEC-BSA coated wells; format: binding, rabbit; conditions: anti ANEC-BSA sera

CCn1c2ccccc2c2cc(N)ccc21 [3-amino-N-ethyl-carbazole, 3-amino-N-ethylcarbazole]
solubility [1]: ≤ 1000 µM
IC50 (anti-ANEC-BSA serum; free hapten as inhibitor, read-out: concentration giving 50% inhibition of antibody binding): 10 µM
inhibition of antibody binding (anti-ANEC-BSA serum; free hapten at 1 mM): 70%
